The values below are quoted from earlier work in patent publication US6344444B1 (Nutrition 21, priority 1997, dated 2002).

In series [1] the test system is cholesterol-induced intimal hyperplasia. The conditions noted are these: rabbits, injection or ingestion.
Series [2] deals with femoral density. The conditions noted are these: postmenopausal women, injection 50 mg twice weekly, over 14 months.
Series [3] has as its system bone turnover. The conditions noted are these: ovariectomized rats, oral.

As to `NCCCC[C@H](N)C(=O)O.O[Si](O)(O)O` [lysine silicate], the “intimal thickening and fragmentation of arterial elastic fibers” value in series [1] is listed as “prevented”.
For the molecule `C[Si](O)(O)O` [monomethyltrisilanol], in series [2], the “increase of femoral density (average)” value is recorded as 4.7%. Also, the “intimal thickening and fragmentation of arterial elastic fibers” value in series [1] was “prevented”.
For orthosilicic acid, in series [3], the bone formation rate result is “increased” and the bone turnover entry was “slowed”.
